System: 889142-216-R-J1-PDC complex spheroid viability
Assay: Anticancer human tumor 889142-216-R-J1-PDC patient-derived bladder carcinoma cell line growth inhibition [POLQ]
Details: for viability, T/C: stronger effect = lower value
Procedure: Multicellular complex tumor spheroid response to Polymerase (POL) inhibitors (novobiocin, ART-558, RP6685) in combination with a variety of drugs and investigational agents in selected tumor cell lines
The POL inhibitors (novobiocin, ART-558, and RP6685) were evaluated both individually and in combination with standard of care and investigational anticancer small molecules within a complex spheroid model of solid tumors. . Complex spheroids include a stromal component modeled by human endothelial cells (HUVEC) and fibroblasts modeled by human mesenchymal stem cells (MSCs). The concentration ranges selected for each drug and investigational agent were based upon clinically achievable concentrations if the clinical Cmax of the agent was known.
Compounds. The drugs and investigational agents: novobiocin (NSC847541), ART-558 (NSC835418), RP-6685 (NSC848927), peposertib (NSC802822), ceralasertib (NSC780249), elimusertib (NSC800525), camonsertib (NSC841442), AZD-1390 (NSC803789), olaparib (NSC753686), talazoparib (NSC767125), rucaparib (NSC756644), sotorasib (NSC818433), MRTX-1133 (NSC836407), SN-38 (NSC673596), topotecan (NSC609699), epotoside (NSC141540), doxorubicin (NSC123127), gemcitabine (NSC613327), 5-fluorouracil (NSC19893), paclitaxel (NSC125973), vemurafenib (NSC761431), MSA-2 (NSC828583), SN-011 (NSC837082), adavosertib (NSC754352), prexasertib (NSC758257), carboplatin (NSC241240) and oxaliplatin (NSC266046), were obtained from the National Cancer Institute (NCI) Developmental Therapeutics Program Chemical Repository (21). The FDA-approved anticancer drug set is available from the Developmental Therapeutics Program at https://dtp.cancer.gov/organization/dscb/obtaining/. […] The stock solutions were prepared in dimethyl sulfoxide (DMSO, Sigma-Aldrich, St. Louis, MO, cat. D2650), except for the platinum compounds which were prepared in saline (Quality Biological, Gaithersburg, MD, cat. 114-055-101), at 800-fold the tested concentration and stored at -70 degrees C prior to their use. All drugs and investigational agents were tested over a range starting from a high concentration at or near the clinical Cmax and decreasing in half-log increments. If the clinical Cmax for an agent had not been determined, the highest concentration tested was 10 microM, except for SN-38, which was tested at a high concentration of 1 microM.
Cell Culture. All cells were maintained in an incubator at 37 degrees C and 5% CO2 with 95% humidity. The PDC lines were cultured according to standard operating procedures established by the NCI PDMR (https://pdmr.cancer.gov). Table 3 of the manuscript, lists the cell lines along with the number of the three cell types plated to form the mct-spheroids and media for tumor cell growth. After thawing, all PDC lines, except 997537-175-T-J1-PDC and 415267-285-R-J2-PDC, were cultured in Matrigel-coated flasks prepared with a working solution of 1X Ham's F-12 nutrient mix, without supplementation (Thermo Fisher Scientific, cat. 11765054), 100 U/mL penicillin-streptomycin (Thermo Fisher Scientific, cat. 15140122), and 2.5% Matrigel (Corning Inc., Corning, NY, cat. 354248) for the first three passages. The two PDC lines 997537-175-T-J1-PDC and 415267-285-R-J2-PDC were cultured on uncoated flasks. The 857933-349-R-J2-PDC line was cultured in 6C/Colon 1B media containing advanced DMEM/F-12 (Thermo Fisher Scientific, cat. 12634028), 10 mM HEPES (Thermo Fisher Scientific, cat. 15630080), 1X GlutaMAX supplement (Thermo Fisher Scientific, cat. 35050061), 0.1 mg/mL primocin (InvivoGen, San Diego, CA, cat. ant-pm-2), 10% defined fetal bovine serum, heat inactivated (HyClone Laboratories Inc., Logan, UT, cat. SH30070.03HI), 50% L-WRN conditioned media (ATCC, cat. CRL-3276), 1.25 mM N-Acetyl-L-cysteine (Sigma-Aldrich, cat. A9165), 10 mM nicotinamide (Sigma-Aldrich, cat. N0636), 1X B-27 supplement (Thermo Fisher Scientific, cat. 17504044), 1X N-2 supplement (Thermo Fisher Scientific, cat. […]

[1] = curve of first compound, second compound 0.0316 µM
[2] = curve of first compound, second compound 0.1 µM
[3] = curve of first compound, second compound 0.316 µM
[4] = curve of first compound, second compound 1 µM
[5] = curve of first compound, second compound 3.16 µM
[6] = curve of first compound, second compound 10 µM
[7] = second compound 0.0316 µM, first compound 0.0316 µM
[8] = second compound 0.0316 µM, first compound 0.1 µM
[9] = second compound 0.0316 µM, first compound 0.316 µM
[10] = second compound 0.0316 µM, first compound 1 µM
[11] = second compound 0.0316 µM, first compound 3.16 µM
[12] = second compound 0.0316 µM, first compound 10 µM
[13] = second compound 0.1 µM, first compound 0.0316 µM
[14] = second compound 0.1 µM, first compound 0.1 µM
[15] = second compound 0.1 µM, first compound 0.316 µM
[16] = second compound 0.1 µM, first compound 1 µM
[17] = second compound 0.1 µM, first compound 3.16 µM
[18] = second compound 0.1 µM, first compound 10 µM
[19] = second compound 0.316 µM, first compound 0.0316 µM
[20] = second compound 0.316 µM, first compound 0.1 µM
[21] = second compound 0.316 µM, first compound 0.316 µM
[22] = second compound 0.316 µM, first compound 1 µM
[23] = second compound 0.316 µM, first compound 3.16 µM
[24] = second compound 0.316 µM, first compound 10 µM
[25] = second compound 1 µM, first compound 0.0316 µM
[26] = second compound 1 µM, first compound 0.1 µM
[27] = second compound 1 µM, first compound 0.316 µM
[28] = second compound 1 µM, first compound 1 µM
[29] = second compound 1 µM, first compound 3.16 µM
[30] = second compound 1 µM, first compound 10 µM
[31] = second compound 3.16 µM, first compound 0.0316 µM
[32] = second compound 3.16 µM, first compound 0.1 µM
[33] = second compound 3.16 µM, first compound 0.316 µM
[34] = second compound 3.16 µM, first compound 1 µM
[35] = second compound 3.16 µM, first compound 3.16 µM
[36] = second compound 3.16 µM, first compound 10 µM
[37] = second compound 10 µM, first compound 0.0316 µM
[38] = second compound 10 µM, first compound 0.1 µM
[39] = second compound 10 µM, first compound 0.316 µM
[40] = second compound 10 µM, first compound 1 µM
[41] = second compound 10 µM, first compound 3.16 µM
[42] = second compound 10 µM, first compound 10 µM
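Also: spheroids exposed to compounds for seven days.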
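For viability, T/C in this document: 100% = DMSO vehicle control viability.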

Nc1ccn(C2OC(CO)C(O)C2(F)F)c(=O)n1 (centres undefined) + COC1C(OC(N)=O)C(O)C(Oc2ccc3c(O)c(NC(=O)c4ccc(O)c(CC=C(C)C)c4)c(=O)oc3c2C)OC1(C)C
IC50 [1]: 830 nM
IC50 [2]: 225 nM
IC50 [3]: 202 nM
IC50 [4]: 250 nM
IC50 [5]: 180 nM
IC50 [6]: 533 nM
viability, T/C [7]: 60.8%
viability, T/C [8]: 49.5%
viability, T/C [9]: 51.2%
viability, T/C [10]: 49.7%
viability, T/C [11]: 43.4%
viability, T/C [12]: 27.4%
viability, T/C [13]: 78.2%
viability, T/C [14]: 60%
viability, T/C [15]: 41%
viability, T/C [16]: 43.5%
viability, T/C [17]: 42.4%
viability, T/C [18]: 28.4%
viability, T/C [19]: 68.4%
viability, T/C [20]: 56.6%
viability, T/C [21]: 44.5%
viability, T/C [22]: 38.9%
viability, T/C [23]: 43.5%
viability, T/C [24]: 31.8%
viability, T/C [25]: 64.5%
viability, T/C [26]: 58.3%
viability, T/C [27]: 45.5%
viability, T/C [28]: 42.1%
viability, T/C [29]: 37.6%
viability, T/C [30]: 30.3%
viability, T/C [31]: 64.5%
viability, T/C [32]: 52.4%
viability, T/C [33]: 43.7%
viability, T/C [34]: 43.7%
viability, T/C [35]: 38.1%
viability, T/C [36]: 31.4%
viability, T/C [37]: 72.5%
viability, T/C [38]: 60.2%
viability, T/C [39]: 52.7%
viability, T/C [40]: 45.3%
viability, T/C [41]: 42.6%
viability, T/C [42]: 30.5%

Nc1ccc(C#CCN(C(=O)Cc2ncc(C(F)(F)F)cc2C(F)(F)F)c2ccc(F)cc2)nn1
viability, T/C (compound 0.1 µM): 95.3% [middle of 13 runs]
viability, T/C (compound 10 µM): 102% [middle of 13 runs]
IC50 (compound alone, run of 01/19/2024): > 10000 nM

CCc1cc2c(N3CCc4c(cc(Cn5ccnc5)cc4-c4cn(C)nc4C(F)(F)F)C3=O)cc(C)nc2c(OC)n1 + Cc1cccc(N(C)C(=O)C2C(O)CCN2c2nc(C)cc(C(F)(F)F)c2C#N)c1
IC50 [1]: > 10000 nM
IC50 [2]: > 10000 nM
IC50 [3]: > 10000 nM
IC50 [4]: > 10000 nM
IC50 [5]: > 10000 nM
IC50 [6]: > 10000 nM
viability, T/C [7]: 109%
viability, T/C [8]: 132%
viability, T/C [9]: 121%
viability, T/C [10]: 108%
viability, T/C [11]: 91.3%
viability, T/C [12]: 80.8%
viability, T/C [13]: 119%
viability, T/C [14]: 98.8%
viability, T/C [15]: 105%
viability, T/C [16]: 114%
viability, T/C [17]: 109%
viability, T/C [18]: 96.8%
viability, T/C [19]: 113%
viability, T/C [20]: 111%
viability, T/C [21]: 137%
viability, T/C [22]: 137%
viability, T/C [23]: 130%
viability, T/C [24]: 83.9%
viability, T/C [25]: 91%
viability, T/C [26]: 106%
viability, T/C [27]: 143%
viability, T/C [28]: 112%
viability, T/C [29]: 94.7%
viability, T/C [30]: 84.3%
viability, T/C [31]: 104%
viability, T/C [32]: 121%
viability, T/C [33]: 114%
viability, T/C [34]: 94.9%
viability, T/C [35]: 112%
viability, T/C [36]: 69.9%
viability, T/C [37]: 89.2%
viability, T/C [38]: 88.3%
viability, T/C [39]: 109%
viability, T/C [40]: 144%
viability, T/C [41]: 83.7%
viability, T/C [42]: 70.8%

CC1COCCN1c1cc(C2(S(C)(=N)=O)CC2)nc(-c2ccnc3[nH]ccc23)n1 (centres undefined) + COC1C(OC(N)=O)C(O)C(Oc2ccc3c(O)c(NC(=O)c4ccc(O)c(CC=C(C)C)c4)c(=O)oc3c2C)OC1(C)C
IC50 [1]: 1930 nM
IC50 [2]: 1800 nM
IC50 [3]: 996 nM
IC50 [4]: 977 nM
IC50 [5]: 1960 nM
IC50 [6]: 1820 nM
viability, T/C [7]: 99%
viability, T/C [8]: 93.9%
viability, T/C [9]: 71.5%
viability, T/C [10]: 59.8%
viability, T/C [11]: 42.9%
viability, T/C [12]: 40.4%
viability, T/C [13]: 90.8%
viability, T/C [14]: 102%
viability, T/C [15]: 82.9%
viability, T/C [16]: 56.6%
viability, T/C [17]: 46.1%
viability, T/C [18]: 39.8%
viability, T/C [19]: 84.3%
viability, T/C [20]: 92.8%
viability, T/C [21]: 80.9%
viability, T/C [22]: 49.7%
viability, T/C [23]: 49.6%
viability, T/C [24]: 38.9%
viability, T/C [25]: 83.4%
viability, T/C [26]: 131%
viability, T/C [27]: 73.6%
viability, T/C [28]: 60.5%
viability, T/C [29]: 47.6%
viability, T/C [30]: 40.4%
viability, T/C [31]: 100%
viability, T/C [32]: 98%
viability, T/C [33]: 85.6%
viability, T/C [34]: 55.4%
viability, T/C [35]: 46.2%
viability, T/C [36]: 45.2%
viability, T/C [37]: 103%
viability, T/C [38]: 84.2%
viability, T/C [39]: 87.3%
viability, T/C [40]: 53%
viability, T/C [41]: 49.5%
viability, T/C [42]: 43.9%

— PubChem BioAssay AID1963831 (Molecular Pharmacology Branch, DTP, NCI, 2024)
